Data published in patent publication US20240246946A1, “MODULATORS OF TREX1” (Constellation Pharmaceuticals, Inc., priority 2021, published 2024).

Experiments:
full length human TREX1 = target: T1, full length human TREX1 (Homo sapiens, UniProt Q9NSU2); assay: hTREX1 Biochemical Assay (fluorescence, dsDNA substrate degradation); settings: biochemical, read-out: hTREX1 IC50
T1 construct: N-terminally His-Tev tagged full length human TREX1; made in house; host or cells: E. coli
T1 sequence (Q9NSU2 1-314): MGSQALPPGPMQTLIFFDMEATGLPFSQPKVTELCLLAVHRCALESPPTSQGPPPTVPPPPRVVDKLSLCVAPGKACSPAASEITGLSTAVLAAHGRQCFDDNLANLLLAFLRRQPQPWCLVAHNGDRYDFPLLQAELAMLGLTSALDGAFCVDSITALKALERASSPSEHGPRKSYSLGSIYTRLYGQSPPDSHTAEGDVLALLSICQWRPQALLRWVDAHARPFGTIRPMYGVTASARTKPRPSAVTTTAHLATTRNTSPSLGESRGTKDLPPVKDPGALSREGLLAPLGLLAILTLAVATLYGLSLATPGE
In short: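 Fluorescence rises as enzyme degrades a quenched TEX615-labelled dsDNA substrate (60 nM) in 50 mM Tris, 150 mM NaCl, 5 mM MgCl2, pH 7.4. Full-length His-Tev-tagged human TREX1, 4 pM, sits with compound 4 hours at 25° C before substrate; reaction 18 hours, stopped with EDTA.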

[1] = target: T2, human TREX2 (residues M44-A279) (Homo sapiens, UniProt Q9BQ50); assay: hTREX2 Biochemical Assay (fluorescence, dsDNA substrate degradation); settings: biochemical selectivity for hTREX1 vs hTREX2
T2 construct: human TREX2 (residues M44-A279, expressed in E. coli); made in house; host or cells: E. coli
T2 sequence (Q9BQ50 44-279 isoform Q9BQ50-1): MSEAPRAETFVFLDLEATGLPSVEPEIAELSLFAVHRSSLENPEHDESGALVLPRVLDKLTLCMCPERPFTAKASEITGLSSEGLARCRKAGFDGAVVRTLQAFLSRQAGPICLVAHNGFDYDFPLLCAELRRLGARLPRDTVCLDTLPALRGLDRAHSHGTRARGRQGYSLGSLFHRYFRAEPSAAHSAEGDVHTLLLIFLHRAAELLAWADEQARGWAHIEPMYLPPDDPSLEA
Description: Degradation of the dsDNA liberates free fluorophore to produce a fluorescent signal. Specifically, 7.5 μL of N-terminally His-Tev tagged human TREX2 (residues M44-A279, expressed in E. coli and purified in house) in reaction buffer (50 mM Tris, 150 mM NaCl, 2 mM DTT, 0.1 mg/mL BSA, 0.01% (w/v) Tween-20, 5 mM MgCl2, pH 7.4) was added to a 384-well Black ProxiPlate Plus (PerkinElmer) which already contained compound (150 nL) at varying concentrations as a 10 point dose-response in DMSO. The plate was incubated at 25° C. for 4 hours. Reactions were initiated by adding 7.5 μL of dsDNA substrate (Strand A: 5′ TEX615/GCT AGG CAG 3′; Strand B: 5′ CTG CCT AGC/IAbRQSp (IDT)) in reaction buffer. Final concentrations were 50 pM TREX2, 60 nM dsDNA substrate in reaction buffer with 1.0% DMSO (v/v). After 18 hours at 25° C., reactions were quenched by the addition of 2 μL of 500 mM EDTA. Final concentrations in the quenched reaction mixture were 44 pM TREX2, 53 nM DNA and 59 mM EDTA in a volume of 17 μL. After a 5-minute incubation at room temperature, plates were read in an EnVision plate reader (PerkinElmer) measuring fluorescence at 615 nm following excitation w/570 nm light.

full length mouse TREX1 = target: T3, full length mouse TREX1 (Mus musculus, UniProt Q91XB0); assay: mTREX1 Biochemical Assay (fluorescence, dsDNA substrate degradation); settings: biochemical, read-out: mTREX1 IC50
T3 construct: N-terminally His-Tev tagged full length mouse TREX1; made in house; host or cells: E. coli
T3 sequence (Q91XB0 1-314): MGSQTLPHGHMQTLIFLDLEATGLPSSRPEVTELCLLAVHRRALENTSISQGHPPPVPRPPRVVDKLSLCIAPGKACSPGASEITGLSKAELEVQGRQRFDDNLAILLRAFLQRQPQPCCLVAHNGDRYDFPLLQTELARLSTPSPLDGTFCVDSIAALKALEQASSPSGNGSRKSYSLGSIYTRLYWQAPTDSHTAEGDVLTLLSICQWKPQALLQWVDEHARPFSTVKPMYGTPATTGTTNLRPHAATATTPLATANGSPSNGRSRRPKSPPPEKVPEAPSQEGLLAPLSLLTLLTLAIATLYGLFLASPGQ
In short: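 Reaction run 18 h at 25° C. with 60 nM TEX615/quencher-labelled dsDNA and 6 pM mouse TREX1 in Tris buffer (pH 7.4, 5 mM MgCl2, 1.0% DMSO), enzyme having sat 4 h with compound across 10 concentrations. EDTA quench; substrate degradation measured as fluorescence increase.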

Row | Compound | IC50 (full length human TREX1) [nM] | hTREX1 vs hTREX2 selectivity [1] | IC50 (full length mouse TREX1) [nM]
1 | Cn1cc(C(c2ccccc2C#N)C(c2nc(C(=O)Nc3cnoc3)c(O)c(=O)n2C)C(F)(F)F)cn1 (single isomer, unassigned) [Example 40 D2E2] | > 10 | B (B = 25 to 50-fold selective for hTREX1) | > 10
2 | Cc1nn(C)cc1C(c1cc(F)ccc1C#N)C(c1nc(C(=O)Nc2cnoc2)c(O)c(=O)n1C)C(F)(F)F (single isomer, unassigned) [Example 42 D2E1] | 1 to 10 | B (B = 25 to 50-fold selective for hTREX1) | > 10
3 | Cc1ncc(C(c2ccccc2Cl)C(C)c2nc(C(=O)Nc3cnoc3)c(O)c(=O)n2C)cn1 (single isomer, unassigned) [Example 44 D1E1] | > 10 | A (A = <25 fold selective for hTREX1) | > 10
4 | Cc1ncc(C(c2ccccc2Cl)C(C)c2nc(C(=O)Nc3cnoc3)c(O)c(=O)n2C)cn1 (single isomer, unassigned) [Example 44 D2E2] | > 10 | A (A = <25 fold selective for hTREX1) | > 10
5 | CC(c1nc(C(=O)Nc2cnoc2)c(O)c(=O)n1C)C(c1ccccc1Cl)n1cccn1 (single isomer, unassigned) [Example 45 D1E2] | > 10 | A (A = <25 fold selective for hTREX1) | > 10
6 | CC(c1nc(C(=O)Nc2cnoc2)c(O)c(=O)n1C)C(c1cocn1)c1ccccc1C#N (single isomer, unassigned) [Example 50 D2E1] | > 10 | C (C = >50 fold selective for hTREX1) | > 10
7 | CCn1cc(C(c2ccc(F)cc2C#N)C(C)c2nc(C(=O)Nc3cnoc3)c(O)c(=O)n2C)c(C)n1 (single isomer, unassigned) [Example 55 D1E1] | < 1 | C (C = >50 fold selective for hTREX1) | < 1
8 | CCn1cc(C(c2ccc(F)cc2C#N)C(C)c2nc(C(=O)Nc3cnoc3)c(O)c(=O)n2C)c(C)n1 (single isomer, unassigned) [Example 55 D2E2] | 1 to 10 | C (C = >50 fold selective for hTREX1) | > 10
9 | Cc1nn(C)cc1C(c1ccc(F)cc1C#N)C(C)c1nc(C(=O)Nc2cnoc2)c(O)c(=O)n1C (single isomer, unassigned) [Example 56 D1E1] | < 1 | C (C = >50 fold selective for hTREX1) | < 1
10 | Cc1nn(C)cc1C(c1cc(F)ccc1C#N)C(C)c1nc(C(=O)Nc2cnoc2)c(O)c(=O)n1C (single isomer, unassigned) [Example 57 D2E1] | 1 to 10 | C (C = >50 fold selective for hTREX1) | > 10
11 | CCn1cc(C(c2cc(F)ccc2Cl)C(C)c2nc(C(=O)Nc3cnoc3)c(O)c(=O)n2C)cn1 (single isomer, unassigned) [Example 60 D1E2] | 1 to 10 | A (A = <25 fold selective for hTREX1) | > 10
12 | CCn1cc(C(c2cc(F)ccc2Cl)C(C)c2nc(C(=O)Nc3cnoc3)c(O)c(=O)n2C)cn1 (single isomer, unassigned) [Example 60 D2E1] | > 10 | A (A = <25 fold selective for hTREX1) | > 10
13 | CCn1cc(C(c2cc(F)ccc2Cl)C(C)c2nc(C(=O)Nc3cnoc3)c(O)c(=O)n2C)cn1 (single isomer, unassigned) [Example 60 D2E2] | > 10 | A (A = <25 fold selective for hTREX1) | > 10
14 | Cc1cc(C(c2ccccc2C#N)C(C)c2nc(C(=O)Nc3cnoc3)c(O)c(=O)n2C)n(C)n1 (single isomer, unassigned) [Example 63 D1E2] | 1 to 10 | C (C = >50 fold selective for hTREX1) | > 10
15 | Cc1cn(C)nc1C(c1ccccc1C#N)C(C)c1nc(C(=O)Nc2cnoc2)c(O)c(=O)n1C (single isomer, unassigned) [Example 64 D2E1] | < 1 | C (C = >50 fold selective for hTREX1) | 1 to 10
16 | CCn1ncc(C(c2ccc(F)cc2C#N)C(C)c2nc(C(=O)Nc3cnoc3)c(O)c(=O)n2C)c1C (single isomer, unassigned) [Example 65 D2E1] | 1 to 10 | C (C = >50 fold selective for hTREX1) | > 10
17 | CC(c1nc(C(=O)Nc2cnoc2)c(O)c(=O)n1C)C(c1cnccn1)c1ccccc1C#N (single isomer, unassigned) [Example 66 D1E1] | < 1 | B (B = 25 to 50-fold selective for hTREX1) | < 1
18 | CCn1ncc(C(c2ccccc2C#N)C(C)c2nc(C(=O)Nc3cnoc3)c(O)c(=O)n2C)c1C (single isomer, unassigned) [Example 68 D2E1] | < 1 | B (B = 25 to 50-fold selective for hTREX1) | > 10
19 | COCCn1ncc(C(c2ccccc2C#N)C(C)c2nc(C(=O)Nc3cnoc3)c(O)c(=O)n2C)c1C (single isomer, unassigned) [Example 69 D2E2] | 1 to 10 | B (B = 25 to 50-fold selective for hTREX1) | > 10
20 | COCCn1cc(C(c2cc(F)c(F)cc2Cl)C(C)c2nc(C(=O)Nc3cnoc3)c(O)c(=O)n2C)cn1 (single isomer, unassigned) [Example 73 D1E1] | < 1 | C (C = >50 fold selective for hTREX1) | 1 to 10
21 | CC(c1nc(C(=O)Nc2cnoc2)c(O)c(=O)n1C)C(c1cnn(C)c1)c1ccccc1Cl (single isomer, unassigned) [Example 77 D2E2] | > 10 | A (A = <25 fold selective for hTREX1) | > 10
22 | Cc1nn(C)c(C)c1C(c1ccccc1C#N)C(C)c1nc(C(=O)Nc2cnoc2)c(O)c(=O)n1C (single isomer, unassigned) [Example 78 D1E2] | > 10 | A (A = <25 fold selective for hTREX1) | > 10
23 | CC(c1nc(C(=O)Nc2cnoc2)c(O)c(=O)n1C)C(c1nnn(C)n1)c1ccccc1C#N (single isomer, unassigned) [Example 79 D1E1] | > 10 | A (A = <25 fold selective for hTREX1) | > 10
24 | CC(c1nc(C(=O)Nc2cnoc2)c(O)c(=O)n1C)C(c1nnn(C)n1)c1ccccc1C#N (single isomer, unassigned) [Example 79 D2E1] | 1 to 10 | A (A = <25 fold selective for hTREX1) | > 10
25 | CC(c1nc(C(=O)Nc2cnoc2)c(O)c(=O)n1C)C(c1nnn(C)n1)c1ccccc1C#N (single isomer, unassigned) [Example 79 D2E2] | > 10 | A (A = <25 fold selective for hTREX1) | > 10
